# Numbering of substitutions follows the chain as printed.
# What was measured:
# Hmgcr mRNA [1] = assay: RT-qPCR of Hmgcr mRNA in CHO-7 cells; assay type: cell-based, Chinese hamster; conditions: DMSO = 1; for HMGCR mRNA level, mean: 16 h
# Procedure: (§1) Cells were treated as described in corresponding figure legends, then total RNA was extracted from cells or mouse livers using TRI Reagent (T9424, Sigma-Aldrich). Equal amounts of RNA from cells or mice receiving the same treatment were pooled were used for cDNA synthesis with oligo dT and reverse transcriptase MLV (Promega). Gene expression was analyzed by quantitative real-time PCR on a Stratagene Mx30005PTM Q-PCR Systems. The primers used were listed in Supplementary Tables 2–4.
# Hmgcr mRNA [2] = assay: RT-qPCR of exogenous WT and mutated Hmgcr mRNA in Huh7 cells; assay type: cell-based; conditions: lovastatin
# Procedure: as §1
# a CHO-7 cells were treated with or without 1 μM lovastatin in medium B with 5%
# LDPS and 50 μM mevalonate for 16 h, and harvested for total RNA isolation and
# RT-qPCR. Quantifications of the relative mRNA levels of indicated SREBP target
# (1 picture or pasted object on this page, not shown here)
# WT HMGCR = target: T1, WT HMGCR (Cricetulus griseus, UniProt P00347); assay: Immunoblotting of overexpressed wild type HMGCR in Huh7 cells; assay type: cell-based; conditions: 1 µM lovastatin
# T1 construct: expressed in transfected cells; host or cells: Huh7
# T1 sequence (P00347 1-887): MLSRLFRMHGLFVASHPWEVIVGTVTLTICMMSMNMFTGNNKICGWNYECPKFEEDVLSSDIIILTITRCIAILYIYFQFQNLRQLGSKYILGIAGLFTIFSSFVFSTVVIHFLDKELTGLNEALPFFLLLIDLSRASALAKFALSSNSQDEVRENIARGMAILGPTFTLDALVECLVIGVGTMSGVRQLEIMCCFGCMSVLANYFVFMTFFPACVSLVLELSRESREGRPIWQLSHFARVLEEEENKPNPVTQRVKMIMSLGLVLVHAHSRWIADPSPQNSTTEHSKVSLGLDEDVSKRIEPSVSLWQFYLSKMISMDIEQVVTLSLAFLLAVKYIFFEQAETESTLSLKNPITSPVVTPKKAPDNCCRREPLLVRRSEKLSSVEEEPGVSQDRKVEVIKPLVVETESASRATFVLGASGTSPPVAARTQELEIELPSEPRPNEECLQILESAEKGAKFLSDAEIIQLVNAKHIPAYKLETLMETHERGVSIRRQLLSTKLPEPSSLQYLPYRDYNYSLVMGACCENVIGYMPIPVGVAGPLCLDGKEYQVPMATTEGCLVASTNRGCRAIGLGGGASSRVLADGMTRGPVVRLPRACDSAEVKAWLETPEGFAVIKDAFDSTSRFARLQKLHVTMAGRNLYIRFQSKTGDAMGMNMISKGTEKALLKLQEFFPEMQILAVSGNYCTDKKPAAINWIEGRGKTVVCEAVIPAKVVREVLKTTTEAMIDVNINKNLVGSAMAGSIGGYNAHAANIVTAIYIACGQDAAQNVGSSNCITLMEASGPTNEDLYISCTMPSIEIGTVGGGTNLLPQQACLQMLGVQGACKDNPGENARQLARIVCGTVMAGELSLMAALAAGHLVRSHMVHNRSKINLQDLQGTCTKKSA
# Procedure: (§2) Cells were harvested and homogenized in the RIPA buffer (50 mM Tris-HCl, pH 8.0, 150 mM NaCl, 2 mM MgCl2, 1.5% NP-40, 0.1% SDS, and 0.5% sodium deoxycholate) supplemented with protease cocktail inhibitor, 10 μM MG-132, 10 μg ml^−1 leupeptin and 1 mM phenylmethylsulfonyl fluoride. The protein concentrations of lysates were determined using BCA method (Beyotime). Samples were mixed with the membrane protein solubilization buffer (62.5 mM Tris-HCl, pH 6.8, 15% SDS, 8 M urea, 10% glycerol, and 100 mM DTT) plus the 4× loading buffer (150 mM Tris-HCl, pH 6.8, 12% SDS, 30% glycerol, 6% 2-mercaptoethanol, and 0.02% bromophenol blue) and incubated for 30 min at 37 °C. Proteins were resolved by SDS-PAGE and transferred to nitrocellulose membranes (GE Healthcare). Immnoblots were blocked with 5% non-fat milk in TBS containing 0.075% Tween-20 (TBST) and probed with indicated antibodies overnight at 4 °C. After washing in TBST for five times, blots were incubated with HRP-conjugated secondary antibodies for 2 h at room temperature. Immunoreactivity was developed with Clarity Western ECL chemiluminescent substrates (170–5061, Bio-Rad). Western blot images were captured by Amersham Imager 600 (GE Healthcare), and integrated optical intensities of each band were quantified by Image-Pro Plus 6 software (Media Cybernetics). […]
# (§3) RT-qPCR. Quantifications of the relative mRNA levels of indicated SREBP target […]
# K89R/K248R HMGCR = target: T2, K89R/K248R HMGCR (Cricetulus griseus, UniProt P00347, K248R/K89R); assay: Immunoblotting of overexpressed K89R/K248R HMGCR in Huh7 cells; assay type: cell-based; parameters: expressed in transfected cells; host or cells: Huh7 (A8); conditions: lovastatin
# T2 sequence (P00347 1-887 K89R/K248R): T1 sequence (P00347 1-887) with K89R, K248R
# Procedure: as §2, §3
compound,measurement,setting,value
"CC[C@H](C)C(=O)O[C@H]1C[C@@H](C)C=C2C=C[C@H](C)[C@H](CC[C@@H]3C[C@@H](O)CC(=O)O3)[C@H]21 [Lovastatin, lovastatin]","HMGCR mRNA level, mean","Hmgcr mRNA [1]; CHO-7, lovastatin 0.001 uM",1.196
same,"HMGCR mRNA level, mean","Hmgcr mRNA [1]; CHO-7, lovastatin 0.003 uM",1.51
same,"HMGCR mRNA level, mean","Hmgcr mRNA [1]; CHO-7, lovastatin 0.01 uM",1.897
same,"HMGCR mRNA level, mean","Hmgcr mRNA [1]; CHO-7, lovastatin 0.03 uM",2.523
same,"HMGCR mRNA level, mean","Hmgcr mRNA [1]; CHO-7, lovastatin 0.1 uM",2.959
same,"HMGCR mRNA level, mean","Hmgcr mRNA [1]; CHO-7, lovastatin 0.3 uM",3.447
same,"HMGCR mRNA level, mean","Hmgcr mRNA [1]; CHO-7, lovastatin 1 uM",3.688
same,"HMGCR mRNA level, mean","Hmgcr mRNA [1]; CHO-7, lovastatin 3 uM",3.602
same,"HMGCR mRNA level, mean","Hmgcr mRNA [1]; CHO-7, lovastatin 10 uM",3.663
same,increase of Hmgcr mRNA abundance,"Hmgcr mRNA [1]; CHO-7 cells, statin 16 h (lovastatin up to 10 μM)",3.6 fold
same,mRNA levels of both WT and mutated Hmgcr,Hmgcr mRNA [2],did not show obvious change
same,elevation of overexpressed WT HMGCR protein,WT HMGCR,6 fold
same,effect on ubiquitination-resistant K89R/K248R HMGCR protein level,K89R/K248R HMGCR,did not induce the protein level further increase

# From publication PMC6277434, “Discovery of a potent HMG-CoA reductase degrader that eliminates statin-induced reductase accumulation and lowers cholesterol” (Nature Communications, 2018)
